# In patent US9969742B2, “Imidazotriazinone compounds” (Ironwood Pharmaceuticals, Inc., priority 2012, dated 2018):
# Read-outs that look alike come from different tables or passages of the source.
# Columns and labels:
# Type in all cases: biochemical
# [1] = target: T1, PDE1B (Homo sapiens, UniProt Q01064); test: Phosphodiesterase enzyme screening assay, PDE1B
# T1 construct: purchased Reaction Biology Corporation, Malvern, Pa
# Procedure, shortened: (§1)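 Reaction started by adding substrate (4.0 μM cGMP) to recombinant human enzyme in HEPES pH 7.5 buffer with MgCl2, DTT and Brij; 1 h at room temperature; quenched with EDTA-containing stop buffer; product and substrate resolved electrophoretically and quantified by fluorescence relative to uninhibited controls.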
# [2] = target: T2, PDE9A2 (Homo sapiens, UniProt O76083); test: Phosphodiesterase enzyme screening assay, PDE9A2
# T2 construct: purchased Reaction Biology Corporation, Malvern, Pa
# T2 sequence (O76083 1-533 isoform O76083-2): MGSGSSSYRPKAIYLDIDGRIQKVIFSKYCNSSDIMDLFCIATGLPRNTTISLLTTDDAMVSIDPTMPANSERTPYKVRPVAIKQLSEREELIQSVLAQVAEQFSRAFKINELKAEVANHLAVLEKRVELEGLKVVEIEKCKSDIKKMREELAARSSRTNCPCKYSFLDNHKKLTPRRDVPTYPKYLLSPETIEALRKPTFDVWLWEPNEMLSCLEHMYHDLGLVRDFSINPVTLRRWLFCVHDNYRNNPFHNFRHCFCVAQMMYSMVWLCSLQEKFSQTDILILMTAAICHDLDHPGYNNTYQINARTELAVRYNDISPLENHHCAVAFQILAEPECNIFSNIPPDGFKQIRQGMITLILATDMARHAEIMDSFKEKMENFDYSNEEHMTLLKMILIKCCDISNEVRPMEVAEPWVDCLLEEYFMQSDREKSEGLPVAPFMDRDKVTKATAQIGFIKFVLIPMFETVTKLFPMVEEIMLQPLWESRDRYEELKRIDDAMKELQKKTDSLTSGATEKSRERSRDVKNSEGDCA
# Procedure, shortened: as §1
# [3] = target: T3, PDE1A (Homo sapiens, UniProt P54750); test: Phosphodiesterase enzyme screening assay, PDE1A
# T3 construct: purchased Reaction Biology Corporation, Malvern, Pa
# T3 sequence (P54750 whole entry): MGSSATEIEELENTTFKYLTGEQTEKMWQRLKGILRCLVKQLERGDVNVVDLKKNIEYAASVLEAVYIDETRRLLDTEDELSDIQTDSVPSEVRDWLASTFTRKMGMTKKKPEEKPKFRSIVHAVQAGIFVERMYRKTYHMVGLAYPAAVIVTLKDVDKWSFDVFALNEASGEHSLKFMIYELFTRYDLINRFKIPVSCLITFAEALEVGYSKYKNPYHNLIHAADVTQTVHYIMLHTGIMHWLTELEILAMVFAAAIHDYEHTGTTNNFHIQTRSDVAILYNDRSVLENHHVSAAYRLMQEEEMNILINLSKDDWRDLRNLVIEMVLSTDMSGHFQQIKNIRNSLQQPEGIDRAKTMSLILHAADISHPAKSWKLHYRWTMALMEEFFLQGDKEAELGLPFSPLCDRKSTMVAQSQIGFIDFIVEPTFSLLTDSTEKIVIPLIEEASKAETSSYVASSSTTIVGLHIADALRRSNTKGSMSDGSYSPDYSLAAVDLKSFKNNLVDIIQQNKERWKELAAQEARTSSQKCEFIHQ
# Procedure, shortened: as §1
# [4] = ratio of IC50 values, value greater than 1 indicates greater selectivity for PDE9A2
# [5] = Table 1, ratio of IC50 values, value greater than 1 indicates greater selectivity for PDE9A2
# [6] = Table 1, 10 concentrations, 4.0 μM cGMP substrate, 1 hour at R.T., read-out: Band (PDE9A2 IC50)
# [7] = 4.0 μM cGMP substrate, 1 hour at R.T., read-out: Band (PDE9A2 IC50)
# [8] = ratio of IC50 values, PDE1B versus PDE9A2, value greater than 1 = greater selectivity for PDE9A2
# [9] = Table 3, 4.0 μM cGMP substrate, 1 hour at R.T., read-out: Band (PDE9A2 IC50)
# [10] = ratio of IC50 values, PDE1A versus PDE9A2, value greater than 1 = greater selectivity for PDE9A2
# [11] = Table 2, ratio of IC50 values, value greater than 1 indicates greater selectivity for PDE9A2
# [12] = ratio of IC50 values, PDE1B versus PDE9A2, value greater than 1 indicates greater selectivity for PDE9A2
# [13] = ratio of IC50 values, PDE1A versus PDE9A2, value greater than 1 indicates greater selectivity for PDE9A2
# T1 sequence (Q01064 whole entry): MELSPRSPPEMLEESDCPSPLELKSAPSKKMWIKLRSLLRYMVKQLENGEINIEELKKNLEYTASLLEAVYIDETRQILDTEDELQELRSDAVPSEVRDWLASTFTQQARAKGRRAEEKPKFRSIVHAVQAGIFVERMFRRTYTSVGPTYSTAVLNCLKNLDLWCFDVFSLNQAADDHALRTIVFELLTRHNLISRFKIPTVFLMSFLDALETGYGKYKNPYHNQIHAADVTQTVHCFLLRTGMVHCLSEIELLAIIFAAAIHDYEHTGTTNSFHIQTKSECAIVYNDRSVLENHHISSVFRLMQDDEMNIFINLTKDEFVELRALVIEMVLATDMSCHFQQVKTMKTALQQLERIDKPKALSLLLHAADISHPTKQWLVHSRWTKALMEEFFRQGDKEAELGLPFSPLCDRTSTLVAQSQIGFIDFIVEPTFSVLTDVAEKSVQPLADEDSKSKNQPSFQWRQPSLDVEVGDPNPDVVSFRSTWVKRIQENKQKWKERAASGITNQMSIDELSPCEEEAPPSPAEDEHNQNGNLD
compound,measurement,setting,value
"CC1CN(Cc2nccs2)CC1c1nn2c(C3CCOCC3)ncc2c(=O)[nH]1 (single isomer, unassigned; (+)) [(+)-2-((3,4-trans)-4-methyl-1-(thiazol-2-ylmethyl)pyrrolidin-3-yl)-7-(tetrahydro-2H-pyran-4-yl)imidazo[5,1-f][1,2,4]triazin-4(3H)-one]",PDE1B selectivity (versus PDE9A2),[1]; [4],147
same,IC50,[2]; read-out: Band (PDE9A2 IC50),< 1 µM
same,PDE1A selectivity (versus PDE9A2),[3]; [4],150
"CC1CN(Cc2ccc[nH]c2=O)CC1c1nn2c(C3CCOCC3)ncc2c(=O)[nH]1 (single isomer, unassigned; (+)) [(+)-2-((3,4-trans)-4-methyl-1-((2-oxo-1,2-dihydropyridin-3-yl)methyl)pyrrolidin-3-yl)-7-(tetrahydro-2H-pyran-4-yl)imidazo[5,1-f][1,2,4]triazin-4(3H)-one]",PDE1B selectivity (versus PDE9A2),[1]; [5],940
same,IC50,[2]; [6],< 1 µM
same,PDE1A selectivity (versus PDE9A2),[3]; [5],424
"CC1CN(c2nccc(C(F)(F)F)n2)CC1c1nn2c(C3CCOCC3)ncc2c(=O)[nH]1 (single isomer, unassigned; (+)) [(+)-2-((3,4-trans)-4-methyl-1-(4-(trifluoromethyl)pyrimidin-2-yl)pyrrolidin-3-yl)-7-(tetrahydro-2H-pyran-4-yl)imidazo[5,1-f][1,2,4]triazin-4(3H)-one]",PDE1B selectivity (versus PDE9A2),"[1]; ratio of IC50 values PDE1B / PDE9A2, value greater than 1 = greater selectivity for PDE9A2",1
same,IC50,[2]; [7],< 1 µM
same,PDE1A selectivity (versus PDE9A2),"[3]; ratio of IC50 values PDE1A / PDE9A2, value greater than 1 = greater selectivity for PDE9A2",7
"CC1CN(Cc2ccccc2Br)CC1c1nn2c(C3CCOCC3)ncc2c(=O)[nH]1 (single isomer, unassigned; (+)) [(+)-2-((3,4-trans)-1-(2-bromobenzyl)-4-methylpyrrolidin-3-yl)-7-(tetrahydro-2H-pyran-4-yl)imidazo[5,1-f][1,2,4]triazin-4(3H)-one]",PDE1B selectivity (versus PDE9A2),[1]; [5],28
same,IC50,[2]; [6],< 1 µM
same,PDE1A selectivity (versus PDE9A2),[3]; [5],104
"Cc1cccnc1CN1CC(C)C(c2nn3c(C4CCOCC4)ncc3c(=O)[nH]2)C1 (single isomer, unassigned; (+)) [(+)-2-((3,4-trans)-4-methyl-1-((3-methylpyridin-2-yl)methyl)pyrrolidin-3-yl)-7-(tetrahydro-2H-pyran-4-yl)imidazo[5,1-f][1,2,4]triazin-4(3H)-one]",PDE1B selectivity (versus PDE9A2),[1]; [8],298
same,IC50,[2]; [9],< 1 µM
same,PDE1A selectivity (versus PDE9A2),[3]; [10],242
"CC1CN(C(=O)c2cccc(F)c2)CC1c1nn2c(C3CCOCC3)ncc2c(=O)[nH]1 (single isomer, unassigned; (-)) [(−)-2-((3,4-trans)-1-(3-fluorobenzoyl)-4-methylpyrrolidin-3-yl)-7-(tetrahydro-2H-pyran-4-yl)imidazo[5,1-f][1,2,4]triazin-4(3H)-one]",PDE1B selectivity (versus PDE9A2),[1]; [5],26
same,IC50,[2]; [6],< 1 µM
same,PDE1A selectivity (versus PDE9A2),[3]; [5],26
"Cc1ccc(F)cc1-c1ncc2c(=O)[nH]c(C3CN(Cc4ccccn4)CC3C)nn12 (single isomer, unassigned; (+)) [(+)-7-(5-fluoro-2-methylphenyl)-2-((3,4-trans)-4-methyl-1-(pyridin-2-ylmethyl)pyrrolidin-3-yl)imidazo[5,1-f][1,2,4]triazin-4(3H)-one]",PDE1B selectivity (versus PDE9A2),"[1]; ratio of IC50 values PDE1B vs PDE9A2, value greater than 1 indicates greater selectivity for PDE9A2",277
same,IC50,"[2]; IC50 band, 4.0 μM cGMP substrate, 1 hour at R.T.",< 1 µM
same,PDE1A selectivity (versus PDE9A2),"[3]; ratio of IC50 values PDE1A vs PDE9A2, value greater than 1 indicates greater selectivity for PDE9A2",560
"Cc1cnccc1-c1ncc2c(=O)[nH]c(C3CN(Cc4ccccc4)CC3C)nn12 (single isomer, unassigned; (+)) [(+)-2-((3,4-trans)-1-benzyl-4-methylpyrrolidin-3-yl)-7-(3-methylpyridin-4-yl) imidazo [5,1-f] [1,2,4] triazin-4 (3H)-one]",PDE1B selectivity (versus PDE9A2),"[1]; ratio of IC50 values PDE1B / PDE9A2, value greater than 1 indicates greater selectivity for PDE9A2",144
same,IC50,[2]; [7],< 1 µM
same,PDE1A selectivity (versus PDE9A2),"[3]; ratio of IC50 values PDE1A / PDE9A2, value greater than 1 indicates greater selectivity for PDE9A2",167
"CC1CN(Cc2nccc(C3CC3)n2)CC1c1nn2c(C3CCOCC3)ncc2c(=O)[nH]1 (single isomer, unassigned; (+)) [(+)-2-((3,4-trans)-1-((4-cyclopropylpyrimidin-2-yl)methyl)-4-methylpyrrolidin-3-yl)-7-(tetrahydro-2H-pyran-4-yl)imidazo[5,1-f][1,2,4]triazin-4(3H)-one]",PDE1B selectivity (versus PDE9A2),[1]; [11],403
same,IC50,"[2]; Table 2, 10 concentrations, 4.0 μM cGMP substrate, 1 hour at R.T., read-out: Band (PDE9A2 IC50)",< 1 µM
same,PDE1A selectivity (versus PDE9A2),[3]; [11],229
"Cc1ccccc1-c1ncc2c(=O)[nH]c(C3CN(Cc4ccc(Cl)cc4)CC3C)nn12 (single isomer, unassigned; (+)) [(+)-2-((3,4-trans)-1-(4-chlorobenzyl)-4-methylpyrrolidin-3-yl)-7-(o-tolyl)imidazo[5,1-f][1,2,4]triazin-4(3H)-one]",PDE1B selectivity (versus PDE9A2),[1]; [12],109
same,IC50,[2]; read-out: Band (PDE9A2 IC50),< 1 µM
same,PDE1A selectivity (versus PDE9A2),[3]; [13],55
"CC1CN(Cc2ccccc2C(F)(F)F)CC1c1nn2c(C3CCOCC3)ncc2c(=O)[nH]1 (single isomer, unassigned; (+)) [(+)-2-((3,4-trans)-4-methyl-1-(2-(trifluoromethyl)benzyl)pyrrolidin-3-yl)-7-(tetrahydro-2H-pyran-4-yl)imidazo[5,1-f][1,2,4]triazin-4(3H)-one]",PDE1B selectivity (versus PDE9A2),[1]; [5],16
same,IC50,[2]; [6],< 1 µM
same,PDE1A selectivity (versus PDE9A2),[3]; [5],73
"COc1cc(CN2CC(C)C(c3nn4c(C5CCOCC5)ncc4c(=O)[nH]3)C2)ccn1 (single isomer, unassigned; (+)) [(+)-2-((3,4-trans)-1-((2-methoxypyridin-4-yl)methyl)-4-methylpyrrolidin-3-yl)-7-(tetrahydro-2H-pyran-4-yl)imidazo[5,1-f][1,2,4]triazin-4(3H)-one]",PDE1B selectivity (versus PDE9A2),[1]; [8],607
same,IC50,[2]; [9],< 1 µM
same,PDE1A selectivity (versus PDE9A2),[3]; [10],317
"CC1CN(Cc2ccc3ncncc3c2)CC1c1nn2c(C3CCOCC3)ncc2c(=O)[nH]1 (single isomer, unassigned; (+)) [(+)-2-((3,4-trans)-4-methyl-1-(quinazolin-6-ylmethyl)pyrrolidin-3-yl)-7-(tetrahydro-2H-pyran-4-yl)imidazo[5,1-f][1,2,4]triazin-4(3H)-one]",PDE1B selectivity (versus PDE9A2),[1]; [5],1067
same,IC50,[2]; [6],< 1 µM
same,PDE1A selectivity (versus PDE9A2),[3]; [5],890
"COc1ccc(F)c(CN2CC(C)C(c3nn4c(C5CCOCC5)ncc4c(=O)[nH]3)C2)c1 (single isomer, unassigned; (+)) [(+)-2-((3,4-trans)-1-(2-fluoro-5-methoxybenzyl)-4-methylpyrrolidin-3-yl)-7-(tetrahydro-2H-pyran-4-yl)imidazo[5,1-f][1,2,4]triazin-4(3H)-one]",PDE1B selectivity (versus PDE9A2),[1]; [5],255
same,IC50,[2]; [6],< 1 µM
same,PDE1A selectivity (versus PDE9A2),[3]; [5],340
"CC1CN(C(=O)c2ccccc2F)CC1c1nn2c(C3CCOCC3)ncc2c(=O)[nH]1 (single isomer, unassigned; (-)) [(−)-2-((3,4-trans)-1-(2-fluorobenzoyl)-4-methylpyrrolidin-3-yl)-7-(tetrahydro-2H-pyran-4-yl)imidazo[5,1-f][1,2,4]triazin-4(3H)-one]",PDE1B selectivity (versus PDE9A2),[1]; [5],7
same,IC50,[2]; [6],< 1 µM
same,PDE1A selectivity (versus PDE9A2),[3]; [5],9
"CC1CN(Cc2nc3ccccn3n2)CC1c1nn2c(C3CCOCC3)ncc2c(=O)[nH]1 (single isomer, unassigned; (+)) [(+)-2-((3,4-trans)-1-([1,2,4]triazolo[1,5-a]pyridin-2-ylmethyl)-4-methylpyrrolidin-3-yl)-7-(tetrahydro-2H-pyran-4-yl)imidazo[5,1-f][1,2,4]triazin-4(3H)-one]",PDE1B selectivity (versus PDE9A2),[1]; [5],457
same,IC50,[2]; [6],< 1 µM
same,PDE1A selectivity (versus PDE9A2),[3]; [5],563
"Cc1ccccc1-c1ncc2c(=O)[nH]c(C3CN(Cc4ccccc4)CC3C)nn12 (single isomer, unassigned; (+)) [(+)-2-((3,4-trans)-1-benzyl-4-methylpyrrolidin-3-yl)-7-(o-tolyl)imidazo[5,1-f][1,2,4]triazin-4(3H)-one]",PDE1B selectivity (versus PDE9A2),[1]; [12],531
same,IC50,[2]; read-out: Band (PDE9A2 IC50),< 1 µM
same,PDE1A selectivity (versus PDE9A2),[3]; [13],461
